Like-named read-outs stand apart in the source and are kept apart here.
Assays:
NanH-D237A [1] = target: T1, NanH-D237A (Tannerella forsythia, UniProt G8UIQ1, D224A); assay: crystal structure ([…] soak, […] Å) and tryptophan fluorescence quenching; format: binding
T1 construct: gene BFO_2207; C-terminally hexahistidine-tagged NanH
T1 sequence (G8UIQ1 21-539 D224A): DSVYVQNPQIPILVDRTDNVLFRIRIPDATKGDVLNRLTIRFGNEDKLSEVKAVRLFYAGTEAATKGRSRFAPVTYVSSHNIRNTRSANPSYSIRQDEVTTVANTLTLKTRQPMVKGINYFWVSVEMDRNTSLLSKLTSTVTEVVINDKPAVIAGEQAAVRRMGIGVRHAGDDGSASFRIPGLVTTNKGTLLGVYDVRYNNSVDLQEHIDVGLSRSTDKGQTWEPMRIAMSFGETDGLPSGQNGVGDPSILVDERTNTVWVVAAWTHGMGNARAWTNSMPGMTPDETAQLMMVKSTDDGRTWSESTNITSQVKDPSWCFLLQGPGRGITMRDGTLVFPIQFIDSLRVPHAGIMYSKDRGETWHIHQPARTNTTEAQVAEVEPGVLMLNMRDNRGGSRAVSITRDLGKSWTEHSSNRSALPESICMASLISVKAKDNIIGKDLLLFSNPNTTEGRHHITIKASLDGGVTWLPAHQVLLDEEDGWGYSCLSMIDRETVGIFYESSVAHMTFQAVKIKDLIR

NanH-D237A [2] = target: T1, NanH-D237A; assay: as above; format: binding; remark: listed apart in the source

SMILES	Kd (NanH-D237A [1]) [µM]	Kd (NanH-D237A [2]) [µM]
CC(=O)N[C@H]1[C@H]([C@H](O)[C@H](O)CO)O[C@@](OC[C@H]2O[C@@H](O[C@H]3[C@H](O)[C@@H](O)C(O)O[C@@H]3CO)[C@H](O)[C@@H](O)[C@H]2O)(C(=O)O)C[C@@H]1O (some centres unmarked) [6-SL]	133 ± 48.3	–
CC(=O)N[C@H]1[C@H]([C@H](O)[C@H](O)CO)O[C@@](O[C@H]2[C@@H](O)[C@@H](CO)O[C@@H](O[C@H]3[C@H](O)[C@@H](O)C(O)O[C@@H]3CO)[C@@H]2O)(C(=O)O)C[C@@H]1O (some centres unmarked) [3-SL]	–	305 ± 91.5

Reference: PMC9472817, “Structural and functional characterisation of a stable, broad-specificity multimeric sialidase from the oral pathogen Tannerella forsythia” (Biochemical Journal, 2022)
